According to US5591837A, “5-O-desosaminylerythronolide a derivative” (Taisho Pharmaceutical Co., Ltd., priority 1992, dated 1997):
Converted amounts (≈) assume the structure as drawn. Where two headings read alike, the source gives them in different places.

Legend:
S. aureus 209P-JC = test: In vitro antibacterial activity (MIC), S. aureus 209P-JC; assay type: cell-based; settings: Staphylococcus aureus, read-out: MIC value (Minimum Inhibitory Concentration)
Protocol: (§1) The in vitro antibacterial activity of the compound of the present invention against various experimental microorganism was measured using sensitive disc media (produced by Eiken Chemical Co.) according to the MIC measuring method specified by the Japan Chemotherpeutic Society. Comparative drug 1:3-deoxy-11-{2-[methyl(benzyl)amino]ethyl}amino-3-oxo-5-O-desosaminyl-6-O-methylerythronolide A 11-N,12-O-cyclic carbamate (described in EP patent No. 0487411), Comparative drug 2:3-deoxy-3-oxo-5-O-desosaminyl-6-O-methylerythronolide A 11,12-cyclic carbonate (described in EP patent No. 0487411), Comparative drug 3:6-O-methylerythromycin A and Comparative drug 4:azithromycin were used.

S. aureus Smith 4 [1] = test: In vitro antibacterial activity (MIC), S. aureus Smith 4; assay type: cell-based; settings: Staphylococcus aureus
Protocol: as §1

E. faecalis CSJ 1212 = test: In vitro antibacterial activity (MIC), E. faecalis CSJ 1212; assay type: cell-based; settings: Enterococcus faecalis
Protocol: as §1

S. aureus B1 = test: In vitro antibacterial activity (MIC), S. aureus B1; assay type: cell-based; settings: Staphylococcus aureus
Protocol: as §1

H. influenzae ATCC19418 = test: In vitro antibacterial activity (MIC), H. influenzae ATCC19418; assay type: cell-based; settings: Haemophilus influenzae, sensitive disc media, read-out: MIC value (Minimum Inhibitory Concentration)
Protocol: as §1

S. aureus Smith 4 [2] = test: In vivo antibacterial activity: protection effect against infection with S. aureus Smith 4 in mice; parameters: species or system male ICR mice; settings: oral, 1 hour after inoculation, 7 days
Protocol: The injection protection effect of the compound of the present invention against infectious bacteria (S. aureus Smith 4) was studied using 8 male ICR mice, 4-week-old, for each group and using Comparative drugs 1, 2 and 3 (as described in Experiment 1). Infectious bacteria (S. aureus Smith 4) were incubated for 18 hours, and diluted with a saline solution containing 5% mucin and heart infusion agar, and 0.5 ml of which was inoculated intraperitoneally to mice. An hour after inoculation of bacteria, the drug suspended in 5% gum arabic was administered orally, followed by judgement of life and death during 7 days.

[3] = Concentration in mouse serum after oral administration; assay type: in vivo, male ICR mice; settings: dose not given; for AUC / Cmax: mouse serum; for concentration at 0.25 h / concentration at 0.5 h / concentration at 1 h / concentration at 2 h / concentration at 4 h / concentration at 6 h: mouse, serum; for concentration at 0.5 h: 0.50 hr
Protocol: Concentration of the compound of the present invention in mouse serum was determined by using 10 male ICR mice, 4-week-old, for each group and using Comparative drugs 2 and 3 (as described in Experiment 1). The drug suspended in 5% gum arabic was administered orally to mice, the blood was collected with lapse of time, and the serum was separated. Concentration of the drug in the serum was measured by using M. luteus ATCC 9341 as approved bacteria according to the papar-disc method.

[4] = SMITH4, S. aureus Smith 4, sensitive disc media, read-out: MIC value (Minimum Inhibitory Concentration)
[5] = S. aureus B1, sensitive disc media, read-out: MIC value (Minimum Inhibitory Concentration)
[6] = S. aureus 209P-JC, sensitive disc media
[7] = CSJ1212, E. faecalis CSJ 1212, sensitive disc media, read-out: MIC value (Minimum Inhibitory Concentration)
[8] = B1, read-out: MIC value (Minimum Inhibitory Concentration)

`CC[C@H]1OC(=O)[C@H](C)C(=O)[C@H](C)[C@@H](O[C@@H]2O[C@H](C)C[C@H](N(C)C)[C@H]2O)[C@](C)(OC)C[C@@H](C)C(=O)[C@H](C)[C@H]2N(CCN(C)Cc3ccccc3)C(=O)O[C@]12C` [Comparative drug 1, 3-deoxy-11-{2-[methyl(benzyl)amino]ethyl}amino-3-oxo-5-O-desosaminyl-6-O-methylerythronolide A 11-N,12-O-cyclic carbamate] showed an MIC (S. aureus 209P-JC; 209P) of 0.1 µg/mL (≈ 0.132 µM), an MIC (S. aureus Smith 4 [1]; [4]) of 0.1 µg/mL (≈ 0.132 µM) and an MIC (E. faecalis CSJ 1212; CSJ1212, read-out: MIC value (Minimum Inhibitory Concentration)) of 0.1 µg/mL (≈ 0.132 µM). For the same compound, the MIC (S. aureus B1; [5]) was 0.39 µg/mL (≈ 0.513 µM), the MIC (H. influenzae ATCC19418) was 6.25 µg/mL (≈ 8.22 µM) and the “Number of Survival (n = 8)” value (S. aureus Smith 4 [2]; 0.1 mg/mouse) was 2. The “Number of Survival (n = 8)” value (S. aureus Smith 4 [2]; 0.4 mg/mouse) was 2 and the “Number of Survival (n = 8)” value (S. aureus Smith 4 [2]; 1.6 mg/mouse) was 7.

Work on `CC[C@H]1OC(=O)[C@H](C)C(=O)[C@H](C)[C@@H](O[C@@H]2O[C@H](C)C[C@H](N(C)C)[C@H]2O)[C@](C)(OC)C[C@@H](C)C(=O)[C@H](C)[C@H]2OC(=O)O[C@@]21C` [Comparative drug 2, 3-deoxy-3-oxo-5-O-desosaminyl-6-O-methylerythronolide A 11,12-cyclic carbonate] yielded an MIC (S. aureus 209P-JC; [6]) of 0.1 µg/mL (≈ 0.163 µM), an MIC (S. aureus Smith 4 [1]; [4]) of 0.1 µg/mL (≈ 0.163 µM) and an MIC (E. faecalis CSJ 1212; [7]) of 0.05 µg/mL (≈ 0.0815 µM). The MIC (S. aureus B1; [5]) was 1.56 µg/mL (≈ 2.54 µM), the MIC (H. influenzae ATCC19418) was 25 µg/mL (≈ 40.7 µM) and the “Number of Survival (n = 8)” value (S. aureus Smith 4 [2]; 0.1 mg/mouse) was 2. For the same compound, the “Number of Survival (n = 8)” value (S. aureus Smith 4 [2]; 0.4 mg/mouse) was 8, the “Number of Survival (n = 8)” value (S. aureus Smith 4 [2]; 1.6 mg/mouse) was 8 and the “Concentration in mouse serum” value ([3]; 6 hr) was 0 ng/mL. For the same compound, the AUC [3] was 1370 ng·h/mL, the Cmax [3] was 410 ng/mL and the concentration at 0.25 h [3] was 310 ng/mL. The concentration at 0.5 h [3] was 410 ng/mL, the concentration at 1 h [3] was 270 ng/mL and the concentration at 2 h [3] was 280 ng/mL. The concentration at 4 h [3] was 260 ng/mL.

`CC[C@H]1OC(=O)[C@H](C)[C@@H](O[C@H]2C[C@@](C)(OC)[C@@H](O)[C@H](C)O2)[C@H](C)[C@@H](O[C@@H]2O[C@H](C)C[C@H](N(C)C)[C@H]2O)[C@](C)(OC)C[C@@H](C)C(=O)[C@H](C)[C@@H](O)[C@]1(C)O` [Comparative drug 3, 6-O-methylerythromycin A] showed an MIC (S. aureus 209P-JC; [6]) of 0.1 µg/mL (≈ 0.134 µM), an MIC (S. aureus Smith 4 [1]; [4]) of 0.1 µg/mL (≈ 0.134 µM) and an MIC (E. faecalis CSJ 1212; [7]) of 3.13 µg/mL (≈ 4.18 µM). For the same compound, the MIC (S. aureus B1; [8]) was greater than 100 µg/mL, the MIC (H. influenzae ATCC19418) was 12.5 µg/mL (≈ 16.7 µM) and the “Number of Survival (n = 8)” value (S. aureus Smith 4 [2]; 0.1 mg/mouse) was 3. For the same compound, the “Number of Survival (n = 8)” value (S. aureus Smith 4 [2]; 0.4 mg/mouse) was 6, the “Number of Survival (n = 8)” value (S. aureus Smith 4 [2]; 1.6 mg/mouse) was 8 and the AUC [3] was 880 ng·h/mL. The Cmax [3] was 340 ng/mL, the concentration at 0.25 h [3] was 290 ng/mL and the concentration at 0.5 h [3] was 330 ng/mL. The concentration at 1 h [3] was 340 ng/mL, the concentration at 2 h [3] was 110 ng/mL and the concentration at 4 h [3] was 110 ng/mL. For the same compound, the concentration at 6 h ([3]; 6 hr) was 40 ng/mL.

`CC[C@H]1OC(=O)[C@H](C)[C@@H](O[C@H]2C[C@@](C)(OC)[C@@H](O)[C@H](C)O2)[C@H](C)[C@@H](O[C@@H]2O[C@H](C)C[C@H](N(C)C)[C@H]2O)[C@](C)(O)C[C@@H](C)CN(C)[C@H](C)[C@@H](O)[C@]1(C)O` [Comparative drug 4, azithromycin] gave an MIC (S. aureus 209P-JC; [6]) of 20 µg/mL (≈ 26.7 µM), an MIC (S. aureus Smith 4 [1]; [4]) of 0.39 µg/mL (≈ 0.521 µM) and an MIC (E. faecalis CSJ 1212; [7]) of 6.25 µg/mL (≈ 8.34 µM). The MIC (S. aureus B1; [5]) was greater than 100 µg/mL and the MIC (H. influenzae ATCC19418) was 6.25 µg/mL (≈ 8.34 µM).

Work on `CC[C@H]1OC(=O)[C@H](C)C(=O)[C@H](C)[C@@H](O[C@@H]2O[C@H](C)C[C@H](N(C)C)[C@H]2O)[C@](C)(OC)C[C@@H](C)C(=O)[C@H](C)[C@H]2NC(=O)O[C@@]21C` [Compound 1, 11-amino-3,11-dideoxy-3-oxo-5-O-desosaminyl-6-O-methylerythronolide A 11-N,12-O-cyclic carbamate] yielded an MIC (S. aureus 209P-JC; 209P) of 0.05 µg/mL (≈ 0.0816 µM), an MIC (S. aureus Smith 4 [1]; SMITH4, read-out: MIC value (Minimum Inhibitory Concentration)) of 0.1 µg/mL (≈ 0.163 µM) and an MIC (E. faecalis CSJ 1212; [7]) of 0.05 µg/mL (≈ 0.0816 µM). The MIC (S. aureus B1; [8]) was 0.2 µg/mL (≈ 0.326 µM), the MIC (H. influenzae ATCC19418) was 6.25 µg/mL (≈ 10.2 µM) and the “Number of Survival (n = 8)” value (S. aureus Smith 4 [2]; 0.1 mg/mouse) was 8. For the same compound, the “Number of Survival (n = 8)” value (S. aureus Smith 4 [2]; 0.4 mg/mouse) was 8, the “Number of Survival (n = 8)” value (S. aureus Smith 4 [2]; 1.6 mg/mouse) was 8 and the AUC [3] was 2900 ng·h/mL. The Cmax [3] was 1170 ng/mL, the concentration at 0.25 h [3] was 230 ng/mL and the concentration at 0.5 h [3] was 1170 ng/mL. It also gave a concentration at 1 h [3] of 770 ng/mL, a concentration at 2 h [3] of 600 ng/mL and a concentration at 4 h [3] of 440 ng/mL. The concentration at 6 h ([3]; 6 hr) was 50 ng/mL.
